Assay [1] has as its system AChE. The note with it: cited from earlier work; for inhibition of AChE: 20 μM inhibitor concentration.
Assay [2] concerns the target T1, BuChE from equine serum (eqBuChE) (Equus caballus, UniProt P81908).
T1 construct: BuChE from equine serum; from tissue; host or cells: equine serum
As to the kind of experiment: biochemical. Type of assay: biochemical. Conditions: for IC50: [S] = 112 µM, mean ± SD; for Enantioselectivity (eqBuChE): IC50(Xa:BuChE)/IC50(Xb,BuChE). The text has this: (§1) A Thermo Scintific^TM Varioskan^TM LUX microplate reader and Greiner F-bottom 96-well plates were used. Cornish-Bowden plots (1/V vs. [I] and [S]/V vs. [I]) were used for the visualisation of the mode of inhibition.
(§2) A minor modification of the Ellman assay was used in order to measure the IC50 values.

For assay [3], the target named is AChE from Electrophorus electricus (eeAChE) (Electrophorus electricus, UniProt O42275). As to the kind of experiment: biochemical. Type of assay: biochemical. Conditions: for IC50: [S] = 121 µM, mean ± SD; for fold more potent eeAChE inhibitor than 10a: IC50 ratio vs 10a; for Enantioselectivity (eeAChE): IC50(Xa:AChE)/IC50(Xb:AChE).
AChE from Electrophorus electricus (eeAChE), sequence (O42275 24-633): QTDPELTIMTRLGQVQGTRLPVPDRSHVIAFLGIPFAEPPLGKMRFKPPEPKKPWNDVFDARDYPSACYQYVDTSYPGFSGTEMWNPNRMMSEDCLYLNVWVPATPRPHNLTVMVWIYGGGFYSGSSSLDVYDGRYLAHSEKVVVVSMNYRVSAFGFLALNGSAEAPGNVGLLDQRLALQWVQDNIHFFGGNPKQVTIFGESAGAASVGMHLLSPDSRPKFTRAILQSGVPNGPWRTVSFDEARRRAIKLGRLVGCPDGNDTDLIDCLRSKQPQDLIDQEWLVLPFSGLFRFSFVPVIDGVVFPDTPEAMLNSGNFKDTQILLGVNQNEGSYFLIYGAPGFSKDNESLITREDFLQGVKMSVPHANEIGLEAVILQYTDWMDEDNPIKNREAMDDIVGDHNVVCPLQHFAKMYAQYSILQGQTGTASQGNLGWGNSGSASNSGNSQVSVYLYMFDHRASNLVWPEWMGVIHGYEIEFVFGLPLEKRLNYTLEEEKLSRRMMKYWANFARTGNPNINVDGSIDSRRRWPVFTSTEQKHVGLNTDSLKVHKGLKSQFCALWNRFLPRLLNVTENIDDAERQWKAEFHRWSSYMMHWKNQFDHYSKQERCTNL
Source text: as §1, §2

In assay [4] the test system is A549, HBL-100, HeLa, SW1573, T-47D and WiDr cells. As to the kind of experiment: Antiproliferative SRB assay, panel of six cancer cell lines. Type of assay: cell-based. Conditions: Homo sapiens, 48 h exposure, whole panel, read-out: GI50 against panel of six human cancer cell lines. The text has this:
(§3) For the antiproliferative tests, we applied our implementation of the National Cancer Institute (NCI) screening protocol. As a model of human solid tumour cells, we selected the cell lines A549 (non-small cell lung), HBL-100 (breast), HeLa (cervix), SW1573 (non-small cell lung), T-47D (breast), and WiDr (colon). Cell seeding densities, based on the cell line doubling time, were 2500 (A549, HBL-100, HeLa and SW1573) or 5000 (T-47D and WiDr) cells/well. Compounds were initially dissolved in DMSO at 400 times the desired final maximum test concentration. […] Each compound was tested in triplicate at different dilutions ranging from 1 to 100 μM. Drug treatment began on day 1 after sowing. The drug incubation times were 48 h, after which the cells were precipitated with ice-cold TCA (50% w/v) and fixed for 60 min at 4 °C. Then the SRB test was performed. The optical density (OD) of each well was measured at 530 nm using a microplate absorbance reader (PowerWave XS, BioTek Instruments Inc.). Values were corrected for background OD of wells containing medium only[39].
(§4) Antiproliferative activity of our heterodimers was investigated for six cancer cell lines including A549, HBL-100, HeLa, SW1573, T-47D and WiDr.
(In SRB staining, fixed cells bind dye roughly in proportion to their protein.)

Assay [5] deals with WiDr (colon) cells. As to the kind of experiment: Antiproliferative SRB assay, WiDr. Type of assay: cell-based. The note with it: Homo sapiens, 48 h exposure.
Source text: as §3, §4

The subject of assay [6] is A549 (non-small cell lung) cells. As to the kind of experiment: Antiproliferative SRB assay, A549. Conditions: 48 h exposure. Type of assay: cell-based, human.
Source text: as §3, §4

Assay [7] deals with T-47D (breast) cells. As to the kind of experiment: Antiproliferative SRB assay, T-47D. Type of assay: cell-based. Conditions: Homo sapiens, T47D, 48 h exposure.
Source text: as §3, §4

Assay [8] has as its system HeLa (cervix) cells. As to the kind of experiment: Antiproliferative SRB assay, HeLa. Conditions: Homo sapiens, 48 h exposure. It counts as cell-based.
Source text: as §3, §4

Assay [9] relates to HBL-100 (breast) cells. As to the kind of experiment: Antiproliferative SRB assay, HBL-100. Type of assay: cell-based. Conditions: Homo sapiens, 48 h exposure.
Source text: as §3, §4

Assay [10] concerns SW1573 (non-small cell lung) cells. As to the kind of experiment: Antiproliferative SRB assay, SW1573. It counts as cell-based. Conditions: Homo sapiens, 48 h exposure.
Source text: as §3, §4

The values below come from publication PMC9721440, “Investigation of the enantioselectivity of acetylcholinesterase and butyrylcholinesterase upon inhibition by tacrine-iminosugar heterodimers” (Journal of Enzyme Inhibition and Medicinal Chemistry, 2022).

The structures appear in SMILES notation. “Also recorded” adds a separate entry of the source. Bounds are passed on as bounds.

As a reminder, the IC50 is the concentration that gives 50% inhibition. A lower IC50 goes with higher potency. The term GI50 denotes the concentration that inhibits growth by half. Broadly, the Ki is the equilibrium dissociation constant of an inhibitor or competing ligand from its target.

T1 sequence (P81908 whole entry): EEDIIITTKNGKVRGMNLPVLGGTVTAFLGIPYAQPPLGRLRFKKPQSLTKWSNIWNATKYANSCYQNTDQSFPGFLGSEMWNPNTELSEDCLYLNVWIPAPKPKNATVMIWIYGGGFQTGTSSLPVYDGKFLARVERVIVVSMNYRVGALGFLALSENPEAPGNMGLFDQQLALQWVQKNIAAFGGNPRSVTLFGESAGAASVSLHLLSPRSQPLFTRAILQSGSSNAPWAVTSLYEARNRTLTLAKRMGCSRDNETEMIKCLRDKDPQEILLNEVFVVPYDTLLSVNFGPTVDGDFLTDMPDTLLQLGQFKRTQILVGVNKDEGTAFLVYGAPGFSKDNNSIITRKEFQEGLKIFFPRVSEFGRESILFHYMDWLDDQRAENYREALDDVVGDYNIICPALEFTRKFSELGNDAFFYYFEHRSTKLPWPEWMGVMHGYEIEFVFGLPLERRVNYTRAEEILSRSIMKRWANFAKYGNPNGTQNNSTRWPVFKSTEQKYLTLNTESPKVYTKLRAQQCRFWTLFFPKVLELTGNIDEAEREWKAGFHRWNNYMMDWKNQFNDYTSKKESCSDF

Regarding `COc1ccc2c3c1O[C@H]1C[C@@H](O)C=C[C@@]31CCN(C)C2` [(-)-Galantamine (2a), (-)-Galantamine], the “inhibition of AChE” value in assay [1] is “ca. 94%”.

For `OC[C@@H]1[C@@H](O)[C@H](O)CN1Cc1cn(CCCNc2c3c(nc4ccccc24)CCCC3)nn1` [Compound 10a], the IC50 in assay [2] came to 184 ± 16 nM; in assay [3] it was 530 ± 30 nM. In addition, the “fold less potent eeAChE inhibitor than 10b” value in [3] (IC50 ratio vs 10b, less potent) is given as “ca. 3.5 fold”. For the same compound, in assay [4], the GI50 is greater than 100000 nM.

For `OCC1C(O)C(O)CN1Cc1cn(CCCCCCNc2c3c(nc4ccccc24)CCCC3)nn1` (centres unmarked) [Compound 11a], the “fold stronger eqBuChE inhibitor than 9a” value in assay [2] (IC50 ratio vs 9a) is “roughly 11 fold”. Further, the “fold stronger eqBuChE inhibitor than 10a” value in assay [2] (IC50 ratio vs 10a) came out at 20 fold. For the same compound, the figures for the IC50 in assay [2] and in assay [3] were 9.1 ± 0.3 nM and 9.7 ± 1 nM, respectively. Besides, the “fold more potent eeAChE inhibitor than 9a” value in assay [3] (IC50 ratio vs 9a) was “ca. 43 fold”. Besides, in [3], the “fold more potent eeAChE inhibitor than 10a” value is reported as 55 fold. For the same compound, the concentration for 50% growth inhibition (GI50) was greater than 100000 nM in assay [5]; 94000 ± 9600 nM in assay [6]; less than 100000 nM in assay [6] (Homo sapiens, A549, 48 h); greater than 100000 nM in [7]; 93000 ± 12000 nM in [8]; greater than 100000 nM in assay [9]. This compound yielded a GI50 in [10] greater than 100000 nM.

With `OC[C@H]1[C@H](O)[C@@H](O)CN1Cc1cn(CCCNc2c3c(nc4ccccc24)CCCC3)nn1` [Compound 10b], in [2], the “Enantioselectivity (eqBuChE)” value turned out to be 0.79 and the IC50 was found to be 232 ± 28 nM. For the same compound, in assay [3], the “Enantioselectivity (eeAChE)” value came to 3.5, the “fold more potent eeAChE inhibitor than 10a” value is listed as “ca. 4 fold” and the IC50 was found to be 150 ± 38 nM. The GI50 in assay [4] was greater than 100000 nM.

In the case of `OC[C@H]1[C@H](O)[C@@H](O)CN1Cc1cn(CCNc2c3c(nc4ccccc24)CCCC3)nn1` [Compound 9b], in assay [2], the “Enantioselectivity (eqBuChE)” value worked out at 0.54 and 179 ± 25 nM corresponded to half-maximal inhibition (IC50). In assay [3], the “Enantioselectivity (eeAChE)” value came to 0.28 and the IC50 is 1480 ± 240 nM. Besides, the GI50 in [4] was greater than 100000 nM.

In the case of `OC[C@@H]1[C@@H](O)[C@H](O)CN1Cc1cn(CCNc2c3c(nc4ccccc24)CCCC3)nn1` [Compound 9a], the figures for the IC50 in assay [2] and in assay [3] were 96 ± 5 nM and 420 ± 10 nM, respectively. In addition, the GI50 in assay [4] was greater than 100000 nM.

Turning to `COc1ccc2c3c1O[C@@H]1C[C@H](O)C=C[C@]31CCN(C)C2` [Compound 2b], in [1], the “inhibition of AChE” value is listed as “ca. 4%”.

Regarding `CNC(=O)Oc1ccc2c(c1)[C@]1(C)CCN(C)[C@@H]1N2C` [(-)-physostigmine (3a), (-)-physostigmine], the “fold stronger AChE inhibitor than (+)-physostigmine (3b)” value in assay [1] (depending on the enzyme source) is on record as 25- to 1000 fold.

For the compound `OC[C@H]1[C@H](O)[C@@H](O)CN1Cc1cn(CCCCCCNc2c3c(nc4ccccc24)CCCC3)nn1` [Compound 11b], the “Mode of inhibition eqBuChE” value in assay [2] (Cornish-Bowden plots) is given as “mixed; also recorded: (mixed)”. Further, the “Enantioselectivity (eqBuChE)” value in assay [2] was 1.1. The “fold stronger eqBuChE inhibitor than 9b” value in [2] (IC50 ratio vs 9b) came to 22 fold. Further, in [2] (IC50 ratio vs 10b), the “fold stronger eqBuChE inhibitor than 10b” value is listed as 29 fold. Further, the 50% inhibitory concentration (IC50) in assay [2] came to 8.1 ± 0.1 nM; in assay [3] it was 10.7 ± 0.3 nM. The Ki turned out to be 10 nM in assay [2] (mixed inhibition, Cornish-Bowden, read-out: Ki (competitive inhibition constant) eqBuChE) and 19 nM in assay [3] (mixed inhibition, Cornish-Bowden, read-out: Ki (competitive inhibition constant) eeAChE). Further, the “Mode of inhibition eeAChE” value in assay [3] (Cornish-Bowden plots) was “mixed; also recorded: (mixed)”. In addition, the “Enantioselectivity (eeAChE)” value in assay [3] is 0.91. The “fold more potent eeAChE inhibitor than 9b” value in [3] (IC50 ratio vs 9b) is reported as “ca. 138 fold”. For the same compound, the “fold more potent eeAChE inhibitor than 10b” value in [3] (IC50 ratio vs 10b) is roughly 14 fold. In addition, the GI50 in assay [5] was greater than 100000 nM; in assay [6] it was 84000 ± 28000 nM; in assay [6] (Homo sapiens, A549, 48 h), less than 100000 nM; in assay [7] it was greater than 100000 nM; in assay [8], greater than 100000 nM; in [9] it was greater than 100000 nM. For the same compound, it took 97000 ± 5400 nM to inhibit growth in [10] by half (GI50).
